Here are results for 19 molecules from US10669272B2, “Substituted naphthyridinone compounds useful as T cell activators” (BRISTOL-MYERS SQUIBB COMPANY, priority 2018, dated 2020).

Structures are written as SMILES.

A word on the IC50: it is the point on the concentration scale where inhibition reaches its midpoint. The EC50 is the concentration giving half of the maximal effect.

For one assay, the target named is T1, human DGKα (Homo sapiens, UniProt P23743).
T1 construct: TVMV protease cleavage site (C); Hexa-His (C); made in house; host or cells: Sf9 insect cells (baculovirus, Bac-to-Bac)
In words: DGKα LIPGLO assay (extruded liposome substrate), in vitro DGK inhibition. It is filed as biochemical. To be noted: liposome (LIPGLO) assay; read-out: DGKa LIPGLO IC50.

Another assay has as its target T2, human DGKζ (Homo sapiens, UniProt Q13574).
T2 construct: TVMV protease cleavage site (C); Hexa-His (C); made in house; host or cells: Sf9 insect cells (baculovirus, Bac-to-Bac)
The assay is described as follows: DGKζ LIPGLO assay (extruded liposome substrate), in vitro DGK inhibition. It is filed as biochemical. To be noted: liposome (LIPGLO) assay; read-out: DGKz LIPGLO IC50.

The next assay concerns naïve human CD8 T cells. The assay is described as follows: Human CD8 T cells IFN-γ assay.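 Also: Naïve human CD8 T cells stimulated with plate-bound anti-CD3 and soluble anti-CD28, IFN-γ in supernatant quantified by AlphaLISA and converted to pg/mL.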 It is filed as cell-based. Conditions: Homo sapiens, T-cell, 20 h, normalized to 3 μM reference compound with anti-CD3 plus anti-CD28 as 100% activation; read-out: HuCD8 INFG Normalized EC50.
A further assay has as its system Human venous whole blood. In words: Human whole blood IFN-γ assay.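 Also: blood from healthy donors exposed to compound for 1 h before stimulation with anti-CD3 and anti-CD28 at 1 µg/mL each, IFN-γ quantified in supernatant by AlphaLISA.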 It is filed as cell-based. To be noted: Homo sapiens, 24 h, human whole blood; normalized to 3 μM reference compound with anti-CD3 plus anti-CD28 as 100% activation; read-out: INFg Whole Blood Normalized Agonist EC50.

T1 sequence (P23743 with tags, fused parts or gaps): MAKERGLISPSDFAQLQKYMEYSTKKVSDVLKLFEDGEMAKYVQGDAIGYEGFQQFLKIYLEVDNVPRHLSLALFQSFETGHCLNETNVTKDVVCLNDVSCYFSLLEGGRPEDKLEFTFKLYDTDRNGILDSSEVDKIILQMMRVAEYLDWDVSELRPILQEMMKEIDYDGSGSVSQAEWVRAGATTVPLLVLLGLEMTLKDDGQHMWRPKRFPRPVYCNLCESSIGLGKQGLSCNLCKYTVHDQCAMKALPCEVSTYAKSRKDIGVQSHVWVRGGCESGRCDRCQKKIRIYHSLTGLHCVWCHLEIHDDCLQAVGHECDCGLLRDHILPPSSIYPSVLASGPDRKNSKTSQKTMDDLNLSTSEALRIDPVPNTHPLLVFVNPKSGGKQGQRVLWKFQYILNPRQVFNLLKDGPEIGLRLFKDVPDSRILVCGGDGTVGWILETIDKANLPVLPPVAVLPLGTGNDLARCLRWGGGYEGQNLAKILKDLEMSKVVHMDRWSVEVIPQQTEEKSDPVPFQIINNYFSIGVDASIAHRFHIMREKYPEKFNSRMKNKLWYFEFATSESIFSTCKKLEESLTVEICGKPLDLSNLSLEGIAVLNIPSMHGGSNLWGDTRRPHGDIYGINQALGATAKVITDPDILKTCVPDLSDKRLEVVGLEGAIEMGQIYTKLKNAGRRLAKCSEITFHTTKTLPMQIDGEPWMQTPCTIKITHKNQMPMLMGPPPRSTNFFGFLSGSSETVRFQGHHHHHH
T2 sequence (Q13574 with tags, fused parts or gaps isoform Q13574-4): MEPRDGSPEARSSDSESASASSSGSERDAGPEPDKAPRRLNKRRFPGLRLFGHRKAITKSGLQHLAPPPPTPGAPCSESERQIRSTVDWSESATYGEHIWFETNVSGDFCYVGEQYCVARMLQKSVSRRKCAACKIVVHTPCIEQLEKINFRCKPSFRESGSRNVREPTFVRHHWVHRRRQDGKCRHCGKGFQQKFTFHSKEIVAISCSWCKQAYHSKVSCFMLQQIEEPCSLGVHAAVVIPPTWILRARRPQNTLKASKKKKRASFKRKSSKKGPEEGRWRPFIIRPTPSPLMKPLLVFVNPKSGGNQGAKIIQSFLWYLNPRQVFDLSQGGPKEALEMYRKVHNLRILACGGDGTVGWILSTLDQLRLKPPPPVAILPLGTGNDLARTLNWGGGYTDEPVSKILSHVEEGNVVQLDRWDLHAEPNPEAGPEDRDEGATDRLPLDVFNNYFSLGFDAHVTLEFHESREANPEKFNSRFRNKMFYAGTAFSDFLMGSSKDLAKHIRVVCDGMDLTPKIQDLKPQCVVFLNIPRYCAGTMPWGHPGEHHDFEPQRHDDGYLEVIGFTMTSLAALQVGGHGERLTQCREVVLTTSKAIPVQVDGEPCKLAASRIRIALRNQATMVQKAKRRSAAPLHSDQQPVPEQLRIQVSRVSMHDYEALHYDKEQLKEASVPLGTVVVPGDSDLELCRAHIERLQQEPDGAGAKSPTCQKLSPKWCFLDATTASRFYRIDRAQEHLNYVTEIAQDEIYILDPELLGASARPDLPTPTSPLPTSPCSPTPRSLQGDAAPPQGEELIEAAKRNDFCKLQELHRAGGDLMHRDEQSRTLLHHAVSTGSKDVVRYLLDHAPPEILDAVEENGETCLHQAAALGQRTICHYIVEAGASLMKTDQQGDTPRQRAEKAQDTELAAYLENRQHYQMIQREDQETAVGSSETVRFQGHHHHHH
Method for Human venous whole blood: Human Whole Blood IFN-γ Assay
Human venous whole blood (22.5 μL per well), obtained from healthy donors, was pre-treated with compounds for one hour at 37° C. in a humidified 95% air/5% CO2 incubator. The blood was stimulated with 2.5 μL anti-human CD3 and anti-CD28 mAb at a final concentration of 1 μg/mL each for 24 hours at 37° C. IFN-γ in the supernatants was measured using AlphLISA kit (Cat # AL217).

Consider `C[C@@H]1CN(c2cc(=O)n(C)c3ccc(C#N)nc23)[C@@H](C)CN1Cc1c(F)cc(Cl)cc1F` [Example 268, 8-[(2S,5R)-4-[(4-chloro-2,6-difluorophenyl)methyl]-2,5-dimethylpiperazin-1-yl]-5-methyl-6-oxo-5,6-dihydro-1,5-naphthyridine-2-carbonitrile], for which the IC50 at human DGKα turned out to be 230 nM; at human DGKζ it was 1200 nM. Further, the EC50 in the assay on naïve human CD8 T cells was 54 nM; in the assay with Human venous whole blood, 1700 nM.
In the same order, the values of `C[C@@H]1CN(c2cc(=O)n(C)c3ccc(C#N)nc23)[C@@H](C)CN1Cc1c(F)cccc1C#N` [Example 269, 8-[(2S,5R)-4-[(2-cyano-6-fluorophenyl)methyl]-2,5-dimethylpiperazin-1-yl]-5-methyl-6-oxo-5,6-dihydro-1,5-naphthyridine-2-carbonitrile] are 78000 nM, 240000 nM, 1200 nM and 8800 nM.
The corresponding values for `C[C@@H]1CN(c2cc(=O)n(C)c3ccc(C#N)nc23)[C@@H](C)CN1C(c1cccc(F)c1)c1cccc(F)c1` [Example 270, 8-[(2S,5R)-4-[bis(3-fluorophenyl)methyl]-2,5-dimethylpiperazin-1-yl]-5-methyl-6-oxo-5,6-dihydro-1,5-naphthyridine-2-carbonitrile] are 3400 nM, 570 nM, 62 nM and 2000 nM.
In the same order, the values of `C[C@@H]1CN(c2cc(=O)n(C)c3ccc(C#N)nc23)[C@@H](C)CN1Cc1c(F)cccc1F` [Example 271, 8-[(2S,5R)-4-[(2,6-difluorophenyl)methyl]-2,5-dimethylpiperazin-1-yl]-5-methyl-6-oxo-5,6-dihydro-1,5-naphthyridine-2-carbonitrile] are 130 nM, 1900 nM, 550 nM and 1400 nM.
For `C[C@@H]1CN(c2cc(=O)n(C)c3ccc(C#N)nc23)[C@@H](C)CN1C(c1ccccc1)c1cccc(F)c1F` (stereo partly drawn) [Example 276, 8-[(2S,5R)-4-[(2,3-difluorophenyl)(phenyl)methyl]-2,5-dimethylpiperazin-1-yl]-5-methyl-6-oxo-5,6-dihydro-1,5-naphthyridine-2-carbonitrile], the IC50 on human DGKα stood at 1200 nM; at human DGKζ, 1000 nM. Further, the EC50 in the assay on naïve human CD8 T cells is 180 nM; in the assay on Human venous whole blood, 2400 nM.
The corresponding values for `C[C@@H]1CN(c2cc(=O)n(C)c3ccc(C#N)nc23)[C@@H](C)CN1Cc1ccc(F)cc1F` [Example 277, 8-[(2S,5R)-4-[(2,4-difluorophenyl)methyl]-2,5-dimethylpiperazin-1-yl]-5-methyl-6-oxo-5,6-dihydro-1,5-naphthyridine-2-carbonitrile] are 250 nM, 1500 nM, 66 nM and 840 nM.
The corresponding values for `C[C@@H]1CN(c2cc(=O)n(C)c3ccc(C#N)nc23)[C@@H](C)CN1Cc1cccc(C(F)(F)F)n1` [Example 278, 8-[(2S,5R)-2,5-dimethyl-4-{[6-(trifluoromethyl)pyridin-2-yl]methyl}piperazin-1-yl]-5-methyl-6-oxo-5,6-dihydro-1,5-naphthyridine-2-carbonitrile] are 870 nM, 1500 nM, 2200 nM and 3200 nM.
The corresponding values for `Cc1nc(C(F)(F)F)ccc1CN1C[C@H](C)N(c2cc(=O)n(C)c3ccc(C#N)nc23)C[C@H]1C` [Example 279, 8-[(2S,5R)-2,5-dimethyl-4-{[2-methyl-6-(trifluoromethyl)pyridin-3-yl]methyl}piperazin-1-yl]-5-methyl-6-oxo-5,6-dihydro-1,5-naphthyridine-2-carbonitrile] are 2300 nM, 4600 nM, 1200 nM and 3700 nM.
As to `COc1cc(CN2C[C@H](C)N(c3cc(=O)n(C)c4ccc(C#N)nc34)C[C@H]2C)cc(C(F)(F)F)n1` [Example 280, 8-[(2S,5R)-4-{[2-methoxy-6-(trifluoromethyl)pyridin-4-yl]methyl}-2,5-dimethylpiperazin-1-yl]-5-methyl-6-oxo-5,6-dihydro-1,5-naphthyridine-2-carbonitrile], the results for the half-inhibitory concentration (IC50) at human DGKα and at human DGKζ were 7900 nM and 7300 nM, respectively. In addition, the EC50 worked out at 680 nM with naïve human CD8 T cells and 7700 nM in the assay on Human venous whole blood.
In the same order, the values of `C[C@@H]1CN(c2cc(=O)n(C)c3ccc(C#N)nc23)[C@@H](C)CN1Cc1ccc(C(F)(F)F)nc1Cl` [Example 281, 8-[(2S,5R)-4-{[2-chloro-6-(trifluoromethyl)pyridin-3-yl]methyl}-2,5-dimethylpiperazin-1-yl]-5-methyl-6-oxo-5,6-dihydro-1,5-naphthyridine-2-carbonitrile] are 2800 nM, 4400 nM, 560 nM and 2700 nM.
For `C[C@@H]1CN(c2cc(=O)n(C)c3ccc(C#N)nc23)[C@@H](C)CN1C(c1ccccc1)c1cccc(Cl)c1` (stereo partly drawn) [Example 282, 8-[(2S,5R)-4-[(3-chlorophenyl)(phenyl)methyl]-2,5-dimethylpiperazin-1-yl]-5-methyl-6-oxo-5,6-dihydro-1,5-naphthyridine-2-carbonitrile], the IC50 at human DGKα is 1200 nM; on human DGKζ, 940 nM. Further, the values for the EC50 in the assay with naïve human CD8 T cells and with Human venous whole blood were 69 nM and 3800 nM, respectively.
The corresponding values for `C[C@@H]1CN(c2cc(=O)n(C)c3ccc(C#N)nc23)[C@@H](C)CN1C(c1ccccc1)c1ccc(F)cc1F` (stereo partly drawn) [Example 283, 8-[(2S,5R)-4-[(2,4-difluorophenyl)(phenyl)methyl]-2,5-dimethylpiperazin-1-yl]-5-methyl-6-oxo-5,6-dihydro-1,5-naphthyridine-2-carbonitrile] are 650 nM, 1100 nM, 68 nM and 890 nM.
The corresponding values for `C[C@@H]1CN(c2cc(=O)n(C)c3ccc(C#N)nc23)[C@@H](C)CN1C(c1ccccc1)c1ccccc1F` (stereo partly drawn) [Example 285, 8-[(2S,5R)-4-[(2-fluorophenyl)(phenyl)methyl]-2,5-dimethylpiperazin-1-yl]-5-methyl-6-oxo-5,6-dihydro-1,5-naphthyridine-2-carbonitrile] are 270 nM, 680 nM, 150 nM and 1500 nM.
In the same order, the values of `C[C@@H]1CN(c2cc(=O)n(C)c3ccc(C#N)nc23)[C@@H](C)CN1Cc1cccc(F)c1F` [Example 286, 8-[(2S,5R)-4-[(2,3-difluorophenyl)methyl]-2,5-dimethylpiperazin-1-yl]-5-methyl-6-oxo-5,6-dihydro-1,5-naphthyridine-2-carbonitrile] are 1900 nM, 3200 nM, 370 nM and 2200 nM.
As to `C[C@@H]1CN(c2cc(=O)n(C)c3ccc(C#N)nc23)[C@@H](C)CN1Cc1ccccc1F` [Example 287, 8-[(2S,5R)-4-[(2-fluorophenyl)methyl]-2,5-dimethylpiperazin-1-yl]-5-methyl-6-oxo-5,6-dihydro-1,5-naphthyridine-2-carbonitrile], the results for the 50% inhibitory concentration (IC50) on human DGKα and on human DGKζ were 34 nM and 1600 nM, respectively. The EC50 was 12000 nM in the assay with naïve human CD8 T cells and 7100 nM with Human venous whole blood.
The corresponding values for `C[C@@H]1CN(c2cc(=O)n(C)c3ccc(C#N)nc23)[C@@H](C)CN1C(c1ccccc1)c1cc(F)cc(F)c1` (stereo partly drawn) [Example 288, 8-[(2S,5R)-4-[(3,5-difluorophenyl)(phenyl)methyl]-2,5-dimethylpiperazin-1-yl]-5-methyl-6-oxo-5,6-dihydro-1,5-naphthyridine-2-carbonitrile] are 2000 nM, 2200 nM, 26 nM and 810 nM.
The corresponding values for `C[C@@H]1CN(c2cc(=O)n(C)c3ccc(C#N)nc23)[C@@H](C)CN1C(c1ccc(F)cc1)c1cc(F)cc(F)c1` (stereo partly drawn) [Example 289, 8-[(2S,5R)-4-[(3,5-difluorophenyl)(4-fluorophenyl)methyl]-2,5-dimethylpiperazin-1-yl]-5-methyl-6-oxo-5,6-dihydro-1,5-naphthyridine-2-carbonitrile] are 3000 nM, 760 nM, 220 nM and 1000 nM.
In the same order, the values of `C[C@@H]1CN(c2cc(=O)n(C)c3ccc(C#N)nc23)[C@@H](C)CN1Cc1cc(F)cc(F)c1` [Example 290, 8-[(2S,5R)-4-[(3,5-difluorophenyl)methyl]-2,5-dimethylpiperazin-1-yl]-5-methyl-6-oxo-5,6-dihydro-1,5-naphthyridine-2-carbonitrile] are 1700 nM, 3500 nM, 2000 nM and 7900 nM.
On to `C[C@@H]1CN(c2cc(=O)n(C)c3ccc(C#N)nc23)[C@@H](C)CN1Cc1cccc(F)c1` [Example 292, 8-[(2S,5R)-4-[(3-fluorophenyl)methyl]-2,5-dimethylpiperazin-1-yl]-5-methyl-6-oxo-5,6-dihydro-1,5-naphthyridine-2-carbonitrile], for which the IC50 at human DGKα was determined as 280 nM; on human DGKζ it was 3000 nM. The EC50 in the assay with naïve human CD8 T cells came out at 1700 nM; in the assay on Human venous whole blood it was 2200 nM.
